Test results as given in ChEMBL document CHEMBL1133068, “Novel 2,2-dioxide-4,4-disubstituted-1,3-H-2,1,3-benzothiadiazines as non-nucleoside reverse transcriptase inhibitors” (Bioorg Med Chem Lett, 2000).
Counter-ions that a name gives are not always drawn. Active and inactive are the calls of the source. The rule behind the calls is not given here.

Assays:
[1] = target: T1, Human immunodeficiency virus type 1 reverse transcriptase (Human immunodeficiency virus 1, UniProt Q72547); experiment: The compound was evaluated for the inhibition of HIV-1 reverse transcriptase
[2] = The compound was evaluated for antiviral activity using whole cell assay; type: functional
[3] = target: T1, Human immunodeficiency virus type 1 reverse transcriptase; experiment: The compound was evaluated for the inhibition of HIV-1 reverse transcriptase; Inactive
[4] = The compound was evaluated for antiviral activity using whole cell assay; Inactive; type: functional

With O=S1(=O)Nc2ccc(Cl)cc2C(C#CC2CC2)(C2CC2)N1 (stereo not drawn) the IC50 [1] was 35900 nM and the IC90 [2] was 279 nM.

In the case of O=S1(=O)Nc2ccc(Cl)cc2C(C#Cc2ccccn2)(C2CC2)N1 (stereo not drawn), the IC50 [3] is reported as “Not Active” and the IC90 [4] is reported as “inactive”.

With CCC#CC1(C2CC2)NS(=O)(=O)Nc2ccc(Cl)cc21 (stereo not drawn) the IC90 [2] was 611 nM and the IC50 [3] was “Not Active”.

With CC(C)C#CC1(C2CC2)NS(=O)(=O)Nc2ccc(Cl)cc21 (stereo not drawn) the IC50 [1] was 4630 nM and the IC90 [2] was 182 nM.

For O=S1(=O)Nc2ccc(F)c(F)c2C(C#CC2CC2)(C(F)(F)F)N1 (stereo not drawn), the IC50 [1] was 24700 nM and the IC90 [2] was 284 nM.

For CC(C)C#CC1(C(C)C)NS(=O)(=O)Nc2ccc(Cl)cc21 (stereo not drawn), the IC50 [1] was 137 nM and the IC90 [2] was 643 nM.

Work on O=C1Nc2ccc(Cl)cc2[C@@](C#CC2CC2)(C(F)(F)F)N1 yielded an IC50 [1] of 31 nM and an IC90 [2] of 2 nM.

In the case of O=C1Nc2ccc(Cl)cc2[C@@](C#CC2CC2)(C(F)(F)F)O1 [EFAVIRENZ], the IC90 [2] is reported as 1.7 nM.

With Cc1ccnc2c1NC(=O)c1cccnc1N2C1CC1 [NEVIRAPINE] the IC90 [2] was 37 nM.

With CC(C)C1(C#CC2CC2)NS(=O)(=O)Nc2ccc(Cl)cc21 (stereo not drawn) the IC90 [2] was 677 nM and the IC50 [3] was “Not Active”.

For CCC#CC1(C(C)C)NS(=O)(=O)Nc2ccc(Cl)cc21 (stereo not drawn), the IC90 [2] was 961 nM and the IC50 [3] was “Not Active”.

For O=S1(=O)Nc2ccc(Cl)cc2C(C#Cc2ccccc2)(C2CC2)N1 (stereo not drawn), the IC50 [3] was “Not Active” and the IC90 [4] was “inactive”.

For CC(C)Nc1cccnc1N1CCN(C(=O)c2cc3cc(NS(C)(=O)=O)ccc3[nH]2)CC1 [DELAVIRDINE MESYLATE], the IC90 [2] was 50 nM.
